The test is classed as in vivo, rat. The procedure: Distilled water and saline were administered as vehicle to rats in each control group. […] Plasma cytokine levels were measured by ELISA or multiplex immunoassay; common metabolites and lipid mediators were analyzed by GC-MS/MS and LC-MS/MS, respectively.
Pathway maps of lipid mediators were created by using CellDesigner 4.4 software (http://www.celldesigner.org). We evaluated the effects of the treatments on specific lipid mediators and categorized them according to COX, CYP and LOX pathways by Fisher’s exact test. The proinflammatory and anti-inflammatory indices were analyzed as described by Tam et al. with modification.[22]

Where [1] appears, read: PM/P (polyI:C+maoto vs polyI:C), 2h.
Where [2] appears, read: PM/P (polyI:C+maoto vs polyI:C), 4h.

Structures are written as SMILES. Like-named read-outs stand apart in the source and are kept apart here.

As to `CCCCCC(O)/C=C/C=C\C/C=C\CCCCCCC(=O)O` (centres unmarked) [15-HETrE], the “log2FC of plasma level” value reads like this: (M/C (maoto vs control), 2h) 0.77; (M/C (maoto vs control), 4h) 0.00; (P/C (polyI:C vs control), 2h) 0.20; (P/C (polyI:C vs control), 4h) 1.11; under setting [1], 0.25; under setting [2], -0.98.

As for `CCCCC/C=C\CC(O)C(O)CCCCCCCC(=O)O` (centres unmarked) [9,10-DiHOME], the “log2FC of plasma level” value reads like this: (M/C (maoto vs control), 2h) 0.50; (M/C (maoto vs control), 4h) -0.34; (P/C (polyI:C vs control), 2h) 0.31; (P/C (polyI:C vs control), 4h) -0.14; under setting [1], 0.19; under setting [2], -0.10.

In the case of `CCC(O)C(O)C/C=C\C/C=C\C/C=C\C/C=C\CCCC(=O)O` (centres unmarked) [17,18-DiHETE], the “log2FC of plasma level” value was 0.60 (M/C (maoto vs control), 2h); -0.17 (M/C (maoto vs control), 4h); 0.19 (P/C (polyI:C vs control), 2h); 0.32 (P/C (polyI:C vs control), 4h); -0.30 under setting [1]; -0.38 under setting [2].

For `CCCCCC(=O)CCC1C(=O)CC(O)C1C/C=C\CCCC(=O)O` (centres unmarked) [13,14-dihydro-15-keto-PGD2], the “log2FC of plasma level” value was -0.34. The “log2FC of plasma level” value (first value of an incomplete line, time (2h or 4h) not assignable) is listed as 0.70.

Consider `CC(O)CCC/C=C\C/C=C\C/C=C\C/C=C\CCCC(=O)O` (centres unmarked) [19-HETE], for which the “log2FC of plasma level” value by setting is: (M/C (maoto vs control), 2h) 1.44; (M/C (maoto vs control), 4h) 0.46; (P/C (polyI:C vs control), 2h) 0.66; (P/C (polyI:C vs control), 4h) -0.33; under setting [1], 0.46; under setting [2], 0.72.

`CCCCC/C=C\C/C=C\CC(O)/C=C/C=C\CCCC(=O)O` (centres unmarked) [9-HETE]: the “log2FC of plasma level” value by setting is: (M/C (maoto vs control), 2h) 0.09; (M/C (maoto vs control), 4h) -0.42; (P/C (polyI:C vs control), 2h) -0.22; (P/C (polyI:C vs control), 4h) 0.63; under setting [1], 0.30; under setting [2], -1.09.

Consider `CCCCCC(=O)CC[C@@H]1[C@@H](C/C=C\CCCC(=O)O)[C@@H](O)C[C@H]1O` [13,14-dihydro-15-keto-PGF2α], for which the “log2FC of plasma level” value runs as follows: (M/C (maoto vs control), 2h) 0.41; (M/C (maoto vs control), 4h) -0.29; (P/C (polyI:C vs control), 2h) 0.56; (P/C (polyI:C vs control), 4h) -0.30; under setting [1], 0.05; under setting [2], 0.38.

Consider `CCCCCC(O)C(O)C/C=C\CCCCCCCC(=O)O` (centres unmarked) [12,13-DiHOME], for which the “log2FC of plasma level” value is, setting by setting: (M/C (maoto vs control), 2h) 0.57; (M/C (maoto vs control), 4h) -0.31; (P/C (polyI:C vs control), 2h) 0.25; (P/C (polyI:C vs control), 4h) 0.12; under setting [1], 0.26; under setting [2], -0.28.

`CC/C=C\C/C=C\C/C=C\C/C=C\CC(O)/C=C/C=C\CCC(=O)O` (centres unmarked) [8-HDoHE]: the “log2FC of plasma level” value runs as follows: (M/C (maoto vs control), 2h) 0.09; (M/C (maoto vs control), 4h) -0.20; (P/C (polyI:C vs control), 2h) -0.07; (P/C (polyI:C vs control), 4h) 0.23; under setting [1], -0.15; under setting [2], -0.44.

In the case of `CCCCC[C@H](O)/C=C/C=C\C/C=C\C/C=C\CCCC(=O)O` [15-HETE], the “log2FC of plasma level” value is, setting by setting: (M/C (maoto vs control), 2h) -0.07; (M/C (maoto vs control), 4h) -0.49; (P/C (polyI:C vs control), 2h) -0.12; (P/C (polyI:C vs control), 4h) 0.56; under setting [1], -0.02; under setting [2], -0.78.

With `CCCCC/C=C\C=C\C(O)C/C=C\C/C=C\CCCC(=O)O` (centres unmarked) [11-HETE], the “log2FC of plasma level” value is 0.15 (M/C (maoto vs control), 2h); -0.41 (M/C (maoto vs control), 4h); 0.23 (P/C (polyI:C vs control), 2h); 0.38 (P/C (polyI:C vs control), 4h); 0.04 under setting [1]; -0.66 under setting [2].

As for `CC/C=C\C/C=C\C/C=C\C/C=C\C/C=C\C/C=C\CCC(=O)O` [DHA, docosahexaenoic acid], the “log2FC of plasma level” value reads like this: (M/C (maoto vs control), 2h) 0.46; (M/C (maoto vs control), 4h) -0.10; (P/C (polyI:C vs control), 2h) 0.22; (P/C (polyI:C vs control), 4h) 0.09; under setting [1], 0.05; under setting [2], 0.03.

`CCCCC/C=C\C/C=C\CC(O)C(O)C/C=C\CCCC(=O)O` (centres unmarked) [8,9-DHET]: the “log2FC of plasma level” value is listed as 0.82 (M/C (maoto vs control), 2h); -0.02 (M/C (maoto vs control), 4h); 0.07 (P/C (polyI:C vs control), 2h); 0.42 (P/C (polyI:C vs control), 4h); 0.16 under setting [1]; -0.59 under setting [2].

For `CCCCCC(O)/C=C/C=C/C/C=C/CCCC(=O)O` (centres unmarked) [12-HHT], the “log2FC of plasma level” value (M/C (maoto vs control), 2h) was determined as 0.48; the “log2FC of plasma level” value (M/C (maoto vs control), 4h) is -0.39; the “log2FC of plasma level” value (P/C (polyI:C vs control), 2h) is reported as 0.33; the “log2FC of plasma level” value (P/C (polyI:C vs control), 4h) amounted to 1.13; the “log2FC of plasma level” value under setting [1] is -0.01; the “log2FC of plasma level” value under setting [2] is -1.45.

These data come from publication PMC5654968 (NPJ Systems Biology and Applications, 2017).
